Results: ChEMBL document CHEMBL4219142, “Discovery of potent DOT1L inhibitors by AlphaLISA based High Throughput Screening assay” (Bioorg Med Chem, 2018)

Columns and labels:
[1] = biological target: T1, Histone-lysine N-methyltransferase, H3 lysine-79 specific (Homo sapiens, UniProt Q8TEK3); assay: (§1) Inhibition of recombinant human His6-SUMO tagged DOT1L (1 to 416 residues) expressed in Escherichia coli BL21(DE3) at 100 uM using oligonucleosome as substrate pretreated for 15 mins followed by substrate addition measured after 60 mins in presence of [3H]SAM by liquid scintillation counting method relative to control
Target sequence in this assay (Q8TEK3 whole entry, looked up, the tested form may be a part): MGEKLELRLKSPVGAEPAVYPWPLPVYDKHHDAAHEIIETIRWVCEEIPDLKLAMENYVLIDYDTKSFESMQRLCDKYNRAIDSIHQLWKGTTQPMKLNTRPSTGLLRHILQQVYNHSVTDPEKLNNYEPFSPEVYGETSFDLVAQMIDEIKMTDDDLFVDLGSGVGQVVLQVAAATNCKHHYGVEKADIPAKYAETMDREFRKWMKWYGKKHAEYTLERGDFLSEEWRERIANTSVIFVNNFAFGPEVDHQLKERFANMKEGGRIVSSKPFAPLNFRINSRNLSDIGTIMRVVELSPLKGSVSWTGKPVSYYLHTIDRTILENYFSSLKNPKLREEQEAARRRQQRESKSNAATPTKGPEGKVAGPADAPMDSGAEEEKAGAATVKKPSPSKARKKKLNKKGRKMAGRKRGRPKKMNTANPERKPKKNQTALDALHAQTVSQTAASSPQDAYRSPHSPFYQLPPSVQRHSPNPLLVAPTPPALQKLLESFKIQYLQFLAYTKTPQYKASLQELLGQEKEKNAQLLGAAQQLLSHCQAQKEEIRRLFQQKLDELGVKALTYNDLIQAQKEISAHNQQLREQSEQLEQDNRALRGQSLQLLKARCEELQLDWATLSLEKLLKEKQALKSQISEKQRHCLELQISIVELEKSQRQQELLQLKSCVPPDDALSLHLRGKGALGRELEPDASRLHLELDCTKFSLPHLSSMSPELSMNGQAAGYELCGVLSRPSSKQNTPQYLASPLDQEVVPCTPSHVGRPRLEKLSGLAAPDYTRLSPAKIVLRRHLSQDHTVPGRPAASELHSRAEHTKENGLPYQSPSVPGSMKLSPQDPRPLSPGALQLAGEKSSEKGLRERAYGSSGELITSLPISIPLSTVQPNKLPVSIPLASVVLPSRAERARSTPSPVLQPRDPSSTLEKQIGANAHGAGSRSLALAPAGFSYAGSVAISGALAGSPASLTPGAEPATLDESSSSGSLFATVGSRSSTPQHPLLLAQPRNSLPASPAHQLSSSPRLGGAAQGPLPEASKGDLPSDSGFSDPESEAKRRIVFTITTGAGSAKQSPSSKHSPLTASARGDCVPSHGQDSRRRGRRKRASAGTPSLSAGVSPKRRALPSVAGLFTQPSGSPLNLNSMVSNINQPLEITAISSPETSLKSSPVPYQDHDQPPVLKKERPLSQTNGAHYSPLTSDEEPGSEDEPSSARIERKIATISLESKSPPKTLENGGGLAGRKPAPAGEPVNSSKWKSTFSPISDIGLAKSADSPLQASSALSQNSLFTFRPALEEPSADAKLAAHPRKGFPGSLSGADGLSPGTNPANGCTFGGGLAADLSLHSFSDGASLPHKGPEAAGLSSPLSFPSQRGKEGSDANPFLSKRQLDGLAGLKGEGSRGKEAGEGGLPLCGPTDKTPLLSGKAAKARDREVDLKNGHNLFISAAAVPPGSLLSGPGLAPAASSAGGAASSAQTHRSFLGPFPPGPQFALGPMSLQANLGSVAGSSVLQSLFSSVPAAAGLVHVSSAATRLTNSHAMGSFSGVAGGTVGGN

[2] = biological target: T1, Histone-lysine N-methyltransferase, H3 lysine-79 specific; assay: as §1, with “50” for “100”
Target sequence in this assay (Q8TEK3 whole entry, looked up, the tested form may be a part): as above

[3] = biological target: T1, Histone-lysine N-methyltransferase, H3 lysine-79 specific; assay: as §1, with “25” for “100”
Target sequence in this assay (Q8TEK3 whole entry, looked up, the tested form may be a part): as above

[4] = biological target: T1, Histone-lysine N-methyltransferase, H3 lysine-79 specific; assay: Binding affinity to recombinant human His6-SUMO tagged DOT1L (1 to 416 residues) expressed in Escherichia coli BL21(DE3) by surface plasmon resonance method
Target sequence in this assay (Q8TEK3 whole entry, the tested form may be a part): as the sequence (Q8TEK3 whole entry, looked up, the tested form may be a part) above

[5] = biological target: T1, Histone-lysine N-methyltransferase, H3 lysine-79 specific; assay: Inhibition of recombinant human His6-SUMO tagged DOT1L (1 to 416 residues) expressed in Escherichia coli BL21(DE3) using oligonucleosome as substrate pretreated for 15 mins followed by substrate addition measured after 60 mins in presence of [3H]SAM by liquid scintillation counting method
Target sequence in this assay (Q8TEK3 whole entry, the tested form may be a part): as the sequence (Q8TEK3 whole entry, looked up, the tested form may be a part) above

MV4-11 [6] = assay: Antiproliferative activity against human MV411 cells after 72 hrs by Alamar blue assay; format: functional, cell-based; settings: MV4-11, 72 h
[7] = biological target: T1, Histone-lysine N-methyltransferase, H3 lysine-79 specific; assay: Inhibition of recombinant human His6-SUMO tagged DOT1L (1 to 416 residues) expressed in Escherichia coli BL21(DE3) using oligonucleosome as substrate measured after 30 mins in presence of SAM by AlphaLISA assay
Target sequence in this assay (Q8TEK3 whole entry, the tested form may be a part): as the sequence (Q8TEK3 whole entry, looked up, the tested form may be a part) above

MV4-11 [8] = assay: Cell cycle arrest in human MV411 cells assessed as accumulation at G1 phase at 50 uM after 24 hrs by propidium iodide staining based flow cytometric analysis (reference value: 40.62 to 65.56%); format: functional
MV4-11 [9] = assay: Cell cycle arrest in human MV411 cells assessed as accumulation at G2 phase at 50 uM after 24 hrs by propidium iodide staining based flow cytometric analysis (reference value: 4.19 to 11.88%); format: functional
MV4-11 [10] = assay: Cell cycle arrest in human MV411 cells assessed as accumulation at S phase at 50 uM after 24 hrs by propidium iodide staining based flow cytometric analysis (reference value: 30.25 to 47.5%); format: functional
MV4-11 [11] = assay: Cell cycle arrest in human MV411 cells assessed as accumulation at G1 phase at 25 uM after 24 hrs by propidium iodide staining based flow cytometric analysis (reference value: 40.62 to 65.56%); format: functional
MV4-11 [12] = assay: Cell cycle arrest in human MV411 cells assessed as accumulation at G2 phase at 25 uM after 24 hrs by propidium iodide staining based flow cytometric analysis (reference value: 4.19 to 11.88%); format: functional
MV4-11 [13] = assay: Cell cycle arrest in human MV411 cells assessed as accumulation at S phase at 25 uM after 24 hrs by propidium iodide staining based flow cytometric analysis (reference value: 30.25 to 47.5%); format: functional
MV4-11 [14] = assay: Cell cycle arrest in human MV411 cells assessed as accumulation at G1 phase at 12.5 uM after 24 hrs by propidium iodide staining based flow cytometric analysis (reference value: 40.62 to 65.56%); format: functional
MV4-11 [15] = assay: Cell cycle arrest in human MV411 cells assessed as accumulation at G2 phase at 12.5 uM after 24 hrs by propidium iodide staining based flow cytometric analysis (reference value: 4.19 to 11.88%); format: functional
MV4-11 [16] = assay: Cell cycle arrest in human MV411 cells assessed as accumulation at S phase at 12.5 uM after 24 hrs by propidium iodide staining based flow cytometric analysis (reference value: 30.25 to 47.5%); format: functional
MV4-11 [17] = assay: Induction of apoptosis in human MV411 cells assessed as viable cells at 50 uM after 48 hrs by Annexin-V-FITC/propidium iodide staining based flow cytometric method (reference value: 88.5 to 94.5%); format: functional; settings: MV4-11, 48 h, read-out: Activity
MV4-11 [18] = assay: Induction of apoptosis in human MV411 cells assessed as early apoptotic cells at 50 uM after 48 hrs by Annexin-V-FITC/propidium iodide staining based flow cytometric method (reference value: 1.15 to […]); format: functional
MV4-11 [19] = assay: Induction of apoptosis in human MV411 cells assessed as late apoptotic cells at 50 uM after 48 hrs by Annexin-V-FITC/propidium iodide staining based flow cytometric method (reference value: 4.38 to 4.63%); format: functional
MV4-11 [20] = assay: Induction of apoptosis in human MV411 cells assessed as necrotic cells at 50 uM after 48 hrs by Annexin-V-FITC/propidium iodide staining based flow cytometric method (Rvb <= 0.08%); format: functional
MV4-11 [21] = assay: Induction of apoptosis in human MV411 cells assessed as viable cells at 25 uM after 48 hrs by Annexin-V-FITC/propidium iodide staining based flow cytometric method (reference value: 88.5 to 94.5%); format: functional; settings: MV4-11, 48 h, read-out: Activity
MV4-11 [22] = assay: Induction of apoptosis in human MV411 cells assessed as early apoptotic cells at 25 uM after 48 hrs by Annexin-V-FITC/propidium iodide staining based flow cytometric method (reference value: 1.15 to […]); format: functional
MV4-11 [23] = assay: Induction of apoptosis in human MV411 cells assessed as late apoptotic cells at 25 uM after 48 hrs by Annexin-V-FITC/propidium iodide staining based flow cytometric method (reference value: 4.38 to 4.63%); format: functional
MV4-11 [24] = assay: Induction of apoptosis in human MV411 cells assessed as necrotic cells at 25 uM after 48 hrs by Annexin-V-FITC/propidium iodide staining based flow cytometric method (Rvb <= 0.08%); format: functional
MV4-11 [25] = assay: Induction of apoptosis in human MV411 cells assessed as viable cells at 12.5 uM after 48 hrs by Annexin-V-FITC/propidium iodide staining based flow cytometric method (reference value: 88.5 to 94.5%); format: functional; settings: MV4-11, 48 h, read-out: Activity
MV4-11 [26] = assay: Induction of apoptosis in human MV411 cells assessed as early apoptotic cells at 12.5 uM after 48 hrs by Annexin-V-FITC/propidium iodide staining based flow cytometric method (reference value: 1.15 to […]); format: functional
MV4-11 [27] = assay: Induction of apoptosis in human MV411 cells assessed as late apoptotic cells at 12.5 uM after 48 hrs by Annexin-V-FITC/propidium iodide staining based flow cytometric method (reference value: 4.38 to 4.63%); format: functional
MV4-11 [28] = assay: Induction of apoptosis in human MV411 cells assessed as necrotic cells at 12.5 uM after 48 hrs by Annexin-V-FITC/propidium iodide staining based flow cytometric method (Rvb <= 0.08%); format: functional
MV4-11 [29] = assay: Cell cycle arrest in human MV411 cells assessed as accumulation at G1 phase after 24 hrs by propidium iodide staining based flow cytometric analysis; format: functional

## C(=C\c1nn2c(N3CCOCC3)nnc2s1)/c1ccco1
[1]
  inhibition: 65%
[2]
  inhibition: 55%
[3]
  inhibition: 45%

## C(=C\c1nn2c(-c3ccccc3)nnc2s1)/c1ccco1
[1]
  inhibition: 81%
[4]
  Kd: 4.78 to 4.87 µM
[2]
  inhibition: 79%
[3]
  inhibition: 79.4%
[5]
  IC50: 7.01 µM
MV4-11 [6]
  IC50: 64.7 µM

## Cc1occc1-c1nnc2sc(Cc3ccccc3)nn12
[1]
  inhibition: 24%
[2]
  inhibition: 13%

## Cc1cccc(-c2nnc3sc(/C=C/c4ccco4)nn23)c1
[1]
  inhibition: 74%
[4]
  Kd: 1.21 µM
[2]
  inhibition: 69%
[3]
  inhibition: 66.6%
[5]
  IC50: 9.41 µM
MV4-11 [6]
  IC50: 124 µM

## COc1cc(-c2nnc3sc(/C=C/c4ccco4)nn23)cc(OC)c1OC
[1]
  inhibition: 60%
[2]
  inhibition: 53%
[3]
  inhibition: 48.1%

## COc1ccccc1/C=C/c1nn2c(-c3ccc(N(C)C)cc3)nnc2s1
[1]
  inhibition: 53%
[2]
  inhibition: 53%
[3]
  inhibition: 38.5%

## C(=C\c1nn2c(C3CCCCC3)nnc2s1)/c1ccco1
[1]
  inhibition: 72%
[2]
  inhibition: 68%
[3]
  inhibition: 40.2%

## Fc1cccc(-c2nnc3sc(/C=C/c4ccco4)nn23)c1
[1]
  inhibition: 29%
[2]
  inhibition: 22%

## Fc1cccc(-c2nnc3sc(CCc4ccccc4)nn23)c1
[1]
  inhibition: 50%
[2]
  inhibition: 43%

## CN(C)c1ccc(-c2nnc3sc(/C=C/c4ccco4)nn23)cc1
[1]
  inhibition: 73%
[7]
  IC50: 20.9 µM
[4]
  Kd: 9.3 µM
[2]
  inhibition: 60%
[3]
  inhibition: 56%
[5]
  IC50: 20.9 µM
MV4-11 [6]
  IC50: 51.5 µM
MV4-11 [8]
  Activity: 81.23%
MV4-11 [9]
  Activity: 0%
MV4-11 [10]
  Activity: 17.77%
MV4-11 [11]
  Activity: 70.9%
MV4-11 [12]
  Activity: 3.64%
MV4-11 [13]
  Activity: 25.46%
MV4-11 [14]
  Activity: 69.4%
MV4-11 [15]
  Activity: 4.64%
MV4-11 [16]
  Activity: 25.96%
MV4-11 [17]
  viability at 50 µM: 0.83%
MV4-11 [18]
  Activity: 49.3%
MV4-11 [19]
  Activity: 49.8%
MV4-11 [20]
  Activity: 0.09%
MV4-11 [21]
  viability at 25 µM: 22.2%
MV4-11 [22]
  Activity: 35.4%
MV4-11 [23]
  Activity: 42.4%
MV4-11 [24]
  Activity: 0.04%
MV4-11 [25]
  viability at 12.5 µM: 91.6%
MV4-11 [26]
  Activity: 2.01%
MV4-11 [27]
  Activity: 6.29%
MV4-11 [28]
  Activity: 0.05%
MV4-11 [29]
  Activity: Dose-dependent effect

## Cc1occc1-c1nnc2sc(CCc3ccccc3)nn12
[1]
  inhibition: 27%
[2]
  inhibition: 11%

## c1ccc2c(Cc3nn4c(-c5ccoc5)nnc4s3)cccc2c1
[1]
  inhibition: 77%
[2]
  inhibition: 59%
[3]
  inhibition: 43%

## COc1cccc(-c2nnc3sc(/C=C/c4ccco4)nn23)c1
[1]
  inhibition: 59%
[2]
  inhibition: 51%
[3]
  inhibition: 48.5%

## C(=C\c1nn2c(-c3ccncc3)nnc2s1)/c1ccco1
[1]
  inhibition: 82%
[4]
  Kd: 7.4 µM
[2]
  inhibition: 67%
[3]
  inhibition: 54%
[5]
  IC50: 13.7 µM
MV4-11 [6]
  IC50: 66.5 µM

## C(=C\c1nn2c(-c3cc4ccccc4o3)nnc2s1)/c1ccco1
[1]
  inhibition: 88%
[2]
  inhibition: 71%
[3]
  inhibition: 9%

## Nc1ncnc2c1ncn2[C@@H]1O[C@H](C[C@@H](N)CC[C@H](N)C(=O)O)[C@@H](O)[C@H]1O [SINEFUNGIN]
[7]
  IC50: 33.7 µM

## Cc1occc1-c1nnc2sc(CCCc3ccccc3)nn12
[1]
  inhibition: 41%
[2]
  inhibition: 17%

## Fc1ccc(-c2nnc3sc(/C=C/c4ccco4)nn23)cc1
[1]
  inhibition: 40%
[2]
  inhibition: 44%
